Source: ChEMBL document CHEMBL4354788, “Synthetic small-molecule RNA ligands: future prospects as therapeutic agents” (Medchemcomm, 2019)

What was measured:
[1] = Binding affinity to Stem loop 3 RNA in HIV1 infected in HEK293T cells assessed as reduction in SL3-Gag interaction by measuring inhibition of RNA incorporation into virions; format: cell-based; details: Human immunodeficiency virus 1, HEK-293T
[2] = Binding affinity to r(CUG) repeat RNA (unknown origin)
[3] = system: Human immunodeficiency virus 1; assay: Antiviral activity against HIV1 assessed as reduction in viral replication by cell based assay; format: functional, organism-based
[4] = biological target: Rev responsive element (RRE) RNA; assay: Binding affinity to HIV1 RRE RNA assessed as reduction in binding of tritiated RRE RNA to biotinylated Rev protein by high-throughput scintillation proximity assay; format: nucleic-acid assay, Human immunodeficiency virus 1
[5] = system: Human immunodeficiency virus 1; assay: Antiviral activity against HIV1 infected in human CEM-SS cells assessed as inhibition of virus proliferation; format: functional, organism-based; details: Human immunodeficiency virus 1, CEM-SS
[6] = Binding affinity to HIV1 TAR RNA; parameters: species or system Human immunodeficiency virus 1
[7] = Inhibition of miR-96 hairpin RNA precursor (unknown origin)
[8] = Binding affinity to HCV promoter RNA by NMR-based fragment screening assay; parameters: species or system Hepacivirus hominis
[9] = system: Human immunodeficiency virus 1; assay: Antiviral activity against HIV1 infected in human MT2 cells assessed as inhibition of virus proliferation at 9 uM relative to control; format: functional; details: Human immunodeficiency virus 1, MT2
[10] = system: Human immunodeficiency virus 1; assay: Binding affinity to HIV1 TAR RNA assessed as increase in melting temperature
[11] = system: Human immunodeficiency virus 1; assay: Binding affinity to HIV1 TAR RNA in HIV1 NL4-3 infected human TZM-bl cells assessed as inhibition of Tat-mediated activation relative to control; details: concentration not given here
[12] = system: Human immunodeficiency virus 1; assay: Antiviral activity against HIV1 NL4-3 infected human TZM-bl cells assessed as reduction in viral replication; format: functional, organism-based; details: Human immunodeficiency virus 1, NL4-3, TZM-bl
[13] = Binding affinity to r(CUG) repeat RNA (unknown origin) assessed as reduction in r(CUG)-MBNL1 interaction
[14] = Binding affinity to r(CGG)12 repeat RNA (unknown origin) assessed as reduction in r(CGG)12-[…] interaction
[15] = system: Human immunodeficiency virus 1; assay: Antiviral activity against HIV1 NL4-3 infected in human MAGIC-5B cells assessed as inhibition of virus proliferation; format: functional, organism-based; details: Human immunodeficiency virus 1, NL4-3

Structure (SMILES): CN1CC/C(=N\c2ccc(C(=O)Nc3ccc(N=c4ccn(C)cc4)cc3)cc2)c2cc([N+](=O)[O-])ccc21
- IC50 [1]: 4.5 µM

Structure (SMILES): Nc1cccc(-c2nc3cc(-c4ccc5[nH]c(-c6cccc(N)c6)nc5c4)ccc3[nH]2)c1
- Kd [2]: 0.07 µM

Structure (SMILES): CN(C)CCOc1cc2c(c3ccccc13)-c1ccccc1C2=O
- EC50 ([3]; read-out: EC50): 0.83 µM

Structure (SMILES): CCN(CC)CCOc1ccc(/C(=C(/Cl)c2ccccc2)c2ccccc2)cc1 [ENCLOMIPHENE]
- EC50 [3]: 4.3 µM
- IC50 [4]: 3.7 µM

Structure (SMILES): Cc1ccc2c(N)c(C(=O)Nc3cccc(C(F)(F)F)c3)sc2n1
- EC50 [5]: 28 µM
- Kd [6]: 2.4 µM

Structure (SMILES): CCCN(CC(=O)N(CCC)CC(=O)N(CC(N)=O)Cc1cn(CCCNC(=O)CCCOc2c(C(C)(C)C)cc(-c3nc4cc(N5CCN(C)CC5)ccc4[nH]3)cc2C(C)(C)C)nn1)C(=O)CCCOc1cccc(-c2nc3ccc(-c4nc5ccc(N6CCN(C)CC6)cc5[nH]4)cc3[nH]2)c1
- IC50 [7]: 0.05 µM

Structure (SMILES): COc1cc2nc(N3CCNCC3)nc(N)c2cc1OC [AMINODIMETHOXYQUINAZOLINYLPIPERAZINE]
- Kd [8]: 50.5 µM

Structure (SMILES): NC[C@H]1O[C@@H](O[C@H]2[C@H](O[C@@H]3O[C@H](Cn4cc(-c5ccc(-c6cn(C[C@H]7O[C@@H](O[C@@H]8[C@@H](O)[C@H](N)C[C@H](N)[C@H]8O[C@@H]8O[C@H](CN)[C@@H](O)[C@H](O)[C@H]8N)[C@H](O)[C@@H]7O[C@@H]7O[C@H](CN)[C@@H](O)[C@H](O)[C@H]7N)nn6)cc5)nn4)[C@@H](O[C@@H]4O[C@H](CN)[C@@H](O)[C@H](O)[C@H]4N)[C@H]3O)[C@@H](O)[C@H](N)C[C@@H]2N)[C@H](N)[C@@H](O)[C@@H]1O
- inhibition at 9 µM [9]: 70%
- ΔTm [10]: < 10 °C

Structure (SMILES): CCN[C@@H]1C[C@H](N)[C@@H](O[C@H]2OC(CN)=CC[C@H]2N)[C@H](O)[C@H]1O[C@H]1OC[C@](C)(O)[C@H](NC)[C@H]1O [NETILMICIN]
- inhibition [11]: 81%
- IC50 [12]: 23.1 µM
- Kd [6]: 1.35 µM

Structure (SMILES): COc1ccc2nc3cc(Cl)ccc3c(NCCCCNc3nc(N)nc(N)n3)c2c1
- IC50 [13]: 15 µM
- Kd [2]: 0.0052 µM

Structure (SMILES): Cc1c2cc[n+](CCN3CCCCC3)cc2c(C)c2c1[nH]c1ccc(O)cc12
- IC50 [14]: 12 µM

Structure (SMILES): CC(=O)Nc1nc(-c2cccc(NC(=O)[C@H](N)Cc3c[nH]cn3)c2)cs1
- IC50 [15]: 0.41 µM
- Kd [6]: 17.5 µM
